Test results from paper PMC7413254 (Nature Communications, 2020).
Like-named read-outs stand apart in the source and are kept apart here.

Tests used:
PfCRT [1] = assay: Potential co-substrates tested for influx of VF-6 via PfCRT into the oocyte; type: cell-based, Plasmodium falciparum; parameters: key: X: Compounds that have been tested as potential co-substrates but are not required for influx of VF-6 via PfCRT into the oocyte
non-expressing oocytes [2] = type: cell-based, Xenopus laevis; settings: total [3H]CQ transport; for Uptake of [3H]CQ (% non-expressing oocyte control), trans-stimulation: non-expressing oocytes, normalised to the oocyte type control; for Uptake of [3H]CQ (% PfCRTDd2 control), trans-stimulation, non-expressing oocytes: mean ± SEM, SEM
In short: (§1)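 Oocytes (ten per treatment, ≥4 independent frogs/days) were preloaded by injecting VF-6 in 25 nL ND96 at pH 5.0, 5.5, 6.0 or 7.0, or Na^+-free choline buffer, then uptake run 1.5 h, 27.5 °C, ND96 pH 5.5 by default. Internal concentrations assumed ~400 nL oocyte volume.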

PfCRT^Ecu1110 [3] = target: T1, PfCRT^Ecu1110 (Plasmodium falciparum, UniProt Q9N623, A220S/I356L/K76T/N326D); assay: [3H]CQ uptake into Xenopus oocytes, cis-inhibition by unlabelled solute; type: cell-based
In short: (§2)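 Inward transport into oocyte cytosol from pH 5.5 medium models PfCRT efflux from the acidic digestive vacuole. Incubation 1.5 h, 27.5 °C; termination by ice-cold washes; lysate radioactivity counted.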

PfCRT^Dd2 [4] = target: T2, PfCRT^Dd2 (Plasmodium falciparum, UniProt Q9N623, A220S/I356T/K76T/M74I/N326S/N75E/Q271E/R371I); assay: as above; type: cell-based
In short: as §2

non-expressing oocytes [5] = assay: cells; type: cell-based, Xenopus laevis; settings: Xenopus laevis, Oocyte
In short: as §2

PfCRT^Ecu1110 [6] = target: T1, PfCRT^Ecu1110; assay: cell-based; type: cell-based; settings: […]
In short: as §1

PfCRT^Dd2 [7] = target: T2, PfCRT^Dd2; assay: cell-based; type: cell-based; settings: […]; for activity at 45000 µM: [test solute]i = 45 mM (30 mM for some solutes due to solubility)
In short: as §1

PfNT1 = target: T3, PfNT1 (Plasmodium falciparum, UniProt Q8IDM6); assay: cell-based; type: cell-based; settings: for activity at 5000 µM: total [3H]CQ transport
T3 construct: expressed in transfected cells; host or cells: Xenopus laevis oocytes (stage V-VI), cRNA-injected
In short: as §1

PfCRT^3D7 [8] = target: T4, PfCRT^3D7 (Plasmodium falciparum, UniProt Q8IBZ9); assay: cell-based; type: cell-based
In short: as §1

PfCRT^3D7 [9] = target: T4, PfCRT^3D7; assay: cell-based; type: cell-based; settings: total [3H]CQ transport; for inhibition at 500 µM: [test solute] = 0.5 mM; for inhibition at 1000 µM: [test solute] = 1 mM; for inhibition at 2000 µM: [test solute] = 2 mM
In short: as §2

PfCRT [10] = assay: Test of solutes as potential co-substrates for influx of VF-6 via PfCRT into the oocyte; type: cell-based, Plasmodium falciparum; parameters: key: X: Compounds that have been tested as potential co-substrates but are not required for influx of VF-6 via PfCRT into the oocyte; settings: X = tested
[11] = read-out: PfCRT-mediated [3H]CQ transport, cis-inhibition (% PfCRTEcu1110 control)
[12] = read-out: Uptake of [3H]CQ (% PfCRTDd2 control), cis-inhibition, PfCRTEcu1110, SEM
[13] = read-out: Uptake of [3H]CQ (% PfCRTEcu1110 control), cis-inhibition
[14] = read-out: [3H]CQ transport (% PfCRTEcu1110 control), cis-inhibition, PfCRTEcu1110, SEM
[15] = read-out: PfCRT-mediated [3H]CQ transport, cis-inhibition (% PfCRTDd2 control)
[16] = read-out: Uptake of [3H]CQ (% PfCRTDd2 control), cis-inhibition, PfCRTDd2, SEM
[17] = read-out: Uptake of [3H]CQ (% PfCRTDd2 control), cis-inhibition, non-expressing oocytes, SEM
[18] = read-out: Uptake of [3H]CQ (% non-expressing oocyte control), cis-inhibition
[19] = PfCRT3D7 oocytes, normalised to the oocyte type control, read-out: Uptake of [3H]CQ (% PfCRT3D7 control), cis-inhibition
[20] = mean ± SEM, SEM, read-out: Uptake of [3H]CQ (% PfCRTDd2 control), cis-inhibition, PfCRT3D7

T1 sequence (Q9N623 whole entry A220S/I356L/K76T/N326D): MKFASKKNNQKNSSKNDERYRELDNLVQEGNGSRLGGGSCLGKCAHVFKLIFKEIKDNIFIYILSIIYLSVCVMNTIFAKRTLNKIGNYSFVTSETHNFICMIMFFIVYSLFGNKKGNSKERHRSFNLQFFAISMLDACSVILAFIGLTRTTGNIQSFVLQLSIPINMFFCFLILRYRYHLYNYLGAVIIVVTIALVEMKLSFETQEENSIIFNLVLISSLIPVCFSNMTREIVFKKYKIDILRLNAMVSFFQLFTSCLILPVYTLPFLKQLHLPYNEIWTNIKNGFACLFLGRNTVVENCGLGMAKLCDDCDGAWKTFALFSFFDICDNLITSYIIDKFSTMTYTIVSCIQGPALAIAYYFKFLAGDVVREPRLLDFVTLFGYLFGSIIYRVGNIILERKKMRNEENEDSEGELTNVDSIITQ
T2 sequence (Q9N623 whole entry A220S/I356T/K76T/M74I/N326S/N75E/Q271E/R371I): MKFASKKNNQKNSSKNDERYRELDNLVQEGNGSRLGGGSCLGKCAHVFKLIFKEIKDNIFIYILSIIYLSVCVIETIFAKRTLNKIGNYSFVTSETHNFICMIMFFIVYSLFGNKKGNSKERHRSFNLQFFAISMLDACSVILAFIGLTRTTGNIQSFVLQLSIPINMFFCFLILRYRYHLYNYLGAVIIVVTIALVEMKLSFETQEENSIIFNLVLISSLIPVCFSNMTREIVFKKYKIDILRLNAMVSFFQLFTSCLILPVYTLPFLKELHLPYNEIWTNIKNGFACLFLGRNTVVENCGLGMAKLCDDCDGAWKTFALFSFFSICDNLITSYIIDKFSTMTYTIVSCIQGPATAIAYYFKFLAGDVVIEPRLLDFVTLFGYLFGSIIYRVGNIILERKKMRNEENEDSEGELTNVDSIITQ
T3 sequence (Q8IDM6 whole entry): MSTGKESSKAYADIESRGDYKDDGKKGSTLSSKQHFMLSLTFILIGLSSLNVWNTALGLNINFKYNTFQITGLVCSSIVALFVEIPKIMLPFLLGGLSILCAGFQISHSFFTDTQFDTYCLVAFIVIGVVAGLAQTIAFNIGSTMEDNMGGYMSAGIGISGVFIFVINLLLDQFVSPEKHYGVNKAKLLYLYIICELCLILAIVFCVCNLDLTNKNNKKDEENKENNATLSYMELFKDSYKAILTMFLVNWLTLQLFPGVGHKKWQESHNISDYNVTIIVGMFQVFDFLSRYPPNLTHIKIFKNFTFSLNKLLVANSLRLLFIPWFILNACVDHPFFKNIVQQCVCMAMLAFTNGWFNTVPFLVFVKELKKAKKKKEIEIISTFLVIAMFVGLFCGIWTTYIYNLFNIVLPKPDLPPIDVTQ
T4 sequence (Q8IBZ9 59-398): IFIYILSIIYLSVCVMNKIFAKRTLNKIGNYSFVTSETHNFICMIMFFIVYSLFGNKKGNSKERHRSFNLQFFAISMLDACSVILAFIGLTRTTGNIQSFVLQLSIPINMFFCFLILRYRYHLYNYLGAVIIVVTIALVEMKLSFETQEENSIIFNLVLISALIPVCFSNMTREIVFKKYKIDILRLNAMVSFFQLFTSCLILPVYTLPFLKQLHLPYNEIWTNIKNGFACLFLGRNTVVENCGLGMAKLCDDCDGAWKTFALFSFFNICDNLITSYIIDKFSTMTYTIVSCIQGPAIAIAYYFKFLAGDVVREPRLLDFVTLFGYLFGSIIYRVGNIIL

NCCCC[C@H](N)C(=O)O [L-lysine]
Tested as potential co-substrate but not required for influx of VF-6 via PfCRT into the oocyte (PfCRT [1]): X | Uptake of [3H]CQ (% non-expressing oocyte control), trans-stimulation (non-expressing oocytes [2]; [test solute]i = 5 mM): 101 ± 3.2 % non-expressing oocyte control | Uptake of [3H]CQ (% non-expressing oocyte control), trans-stimulation (non-expressing oocytes [2]; [test solute]i = 45 mM (30 mM for some solutes due to solubility)): 99 ± 3.2 % non-expressing oocyte control | Uptake of [3H]CQ (% PfCRTDd2 control), trans-stimulation, non-expressing oocytes (non-expressing oocytes [2]; [test solute]i = 5 mM (intracellular)): 2.3 ± 0.03 % PfCRTDd2 control | Uptake of [3H]CQ (% PfCRTDd2 control), trans-stimulation, non-expressing oocytes (non-expressing oocytes [2]; [test solute]i = 45 mM (intracellular; 30 mM for some solutes due to solubility)): 3.3 ± 0.03 % PfCRTDd2 control | inhibition at 500 µM (PfCRT^Ecu1110 [3]; [11]): 93 ± 6.7% | inhibition at 1000 µM (PfCRT^Ecu1110 [3]; [11]): 97 ± 5.2% | inhibition at 2000 µM (PfCRT^Ecu1110 [3]; [11]): 96 ± 4.1% | inhibition at 500 µM (PfCRT^Ecu1110 [3]; [12]): 31 ± 1.9% | inhibition at 1000 µM (PfCRT^Ecu1110 [3]; [12]): 32 ± 1.8% | inhibition at 2000 µM (PfCRT^Ecu1110 [3]; [12]): 32 ± 1% | inhibition at 500 µM (PfCRT^Ecu1110 [3]; [13]): 95 ± 3.6% | inhibition at 1000 µM (PfCRT^Ecu1110 [3]; [13]): 99 ± 4.6% | inhibition at 2000 µM (PfCRT^Ecu1110 [3]; [13]): 98 ± 3.2% | inhibition at 500 µM (PfCRT^Ecu1110 [3]; [14]): 28 ± 1.6% | inhibition at 1000 µM (PfCRT^Ecu1110 [3]; [14]): 29 ± 0.2% | inhibition at 2000 µM (PfCRT^Ecu1110 [3]; [14]): 29 ± 0.2% | inhibition at 500 µM (PfCRT^Dd2 [4]; [15]): 93 ± 5.2% | inhibition at 1000 µM (PfCRT^Dd2 [4]; [15]): 99 ± 3.6% | inhibition at 2000 µM (PfCRT^Dd2 [4]; [15]): 95 ± 4.1% | inhibition at 500 µM (PfCRT^Dd2 [4]; [16]): 96 ± 3.1% | inhibition at 1000 µM (PfCRT^Dd2 [4]; [16]): 100 ± 2.8% | inhibition at 2000 µM (PfCRT^Dd2 [4]; [16]): 97 ± 3.2% | inhibition at 500 µM (non-expressing oocytes [5]; [17]): 2.9 ± 0.03% | inhibition at 1000 µM (non-expressing oocytes [5]; [17]): 3.3 ± 0.07% | inhibition at 2000 µM (non-expressing oocytes [5]; [17]): 3.3 ± 0.03% | inhibition at 500 µM (non-expressing oocytes [5]; [18]): 101 ± 6.3% | inhibition at 1000 µM (non-expressing oocytes [5]; [18]): 101 ± 3.6% | inhibition at 2000 µM (non-expressing oocytes [5]; [18]): 100 ± 3.6% | activity at 5000 µM (PfCRT^Ecu1110 [6]; pH 5.5, read-out: PfCRT-mediated [3H]CQ transport, trans-stimulation (% PfCRTEcu1110 control), [test solute]i = 5 mM (intracellular), PfCRTEcu1110 oocytes, normalised to oocyte type control): 95 ± 3.8% | activity at 5000 µM (PfCRT^Ecu1110 [6]; pH 5.5, read-out: Uptake of [3H]CQ (% PfCRTEcu1110 control), trans-stimulation, PfCRTEcu1110 oocytes, [test solute]i = 5 mM, total [3H]CQ transport, normalised to the oocyte type control): 97 ± 4.4% | activity at 45000 µM (PfCRT^Ecu1110 [6]; pH 5.5, read-out: Uptake of [3H]CQ (% PfCRTEcu1110 control), trans-stimulation, PfCRTEcu1110 oocytes, [test solute]i = 45 mM (30 mM for some solutes due to solubility), total [3H]CQ transport, normalised to the oocyte type control): 99 ± 4.2% | activity at 5000 µM (PfCRT^Ecu1110 [6]; read-out: Uptake of [3H]CQ (% PfCRTDd2 control), trans-stimulation, PfCRTEcu1110, total [3H]CQ transport, [test solute]i = 5 mM (intracellular), mean ± SEM, SEM): 35 ± 1.8% | activity at 45000 µM (PfCRT^Ecu1110 [6]; read-out: Uptake of [3H]CQ (% PfCRTDd2 control), trans-stimulation, PfCRTEcu1110, total [3H]CQ transport, [test solute]i = 45 mM (intracellular; 30 mM for some solutes due to solubility), mean ± SEM, SEM): 35 ± 1.6% | activity at 5000 µM (PfCRT^Dd2 [7]; pH 5.5, read-out: PfCRT-mediated [3H]CQ transport, trans-stimulation (% PfCRTDd2 control), [test solute]i = 5 mM (intracellular), PfCRTDd2 oocytes, normalised to oocyte type control): 97 ± 3.4% | activity at 5000 µM (PfCRT^Dd2 [7]; pH 5.5, read-out: Uptake of [3H]CQ (% PfCRTDd2 control), trans-stimulation, PfCRTDd2, total [3H]CQ transport, [test solute]i = 5 mM (intracellular), mean ± SEM, SEM): 99 ± 2.4% | activity at 5000 µM (PfCRT^Dd2 [7]; pH 5.5, read-out: Uptake of [3H]CQ (% PfCRTDd2 control), trans-stimulation, PfCRTDd2 oocytes, [test solute]i = 5 mM, total [3H]CQ transport, normalised to the oocyte type control): 99 ± 2.4% | activity at 45000 µM (PfCRT^Dd2 [7]; pH 5.5, read-out: Uptake of [3H]CQ (% PfCRTDd2 control), trans-stimulation, PfCRTDd2 oocytes, total [3H]CQ transport, normalised to the oocyte type control): 97 ± 3.2% | activity at 5000 µM (PfCRT^Dd2 [7]; pH 5.5, read-out: [3H]CQ transport (% PfCRTDd2 control), trans-stimulation, PfCRTDd2, trans-stimulation, [test solute]i = 5 mM (injected), PfCRT-mediated component (background subtracted), mean ± SEM, SEM): 97 ± 3.4% | activity at 45000 µM (PfCRT^Dd2 [7]; pH 5.5, read-out: [3H]CQ transport (% PfCRTDd2 control), trans-stimulation, PfCRTDd2, trans-stimulation, PfCRT-mediated component (background subtracted), mean ± SEM, SEM): 95 ± 4.5% | activity at 5000 µM (PfNT1; PfNT1 oocytes, [test solute]i = 5 mM, normalised to the oocyte type control, read-out: Uptake of [3H]CQ (% PfNT1 control), trans-stimulation): 100 ± 3.6% | activity at 45000 µM (PfNT1; SEM, read-out: Uptake of [3H]CQ (% PfCRTDd2 control), trans-stimulation, PfNT1): 2.8 ± 0.05% | activity at 45000 µM (PfNT1; read-out: Uptake of [3H]CQ (% PfNT1 control), trans-stimulation): 99 ± 3.7% | activity at 5000 µM (PfNT1; [test solute]i = 5 mM (intracellular), mean ± SEM, SEM, read-out: Uptake of [3H]CQ (% PfCRTDd2 control), trans-stimulation, PfNT1): 2.1 ± 0.01% | activity at 5000 µM (PfCRT^3D7 [8]; PfCRT3D7 oocytes, [test solute]i = 5 mM, total [3H]CQ transport, normalised to the oocyte type control, read-out: Uptake of [3H]CQ (% PfCRT3D7 control), trans-stimulation): 99 ± 3.7% | [3H]CQ transport (% PfCRT3D7 control), trans-stimulation, PfCRT3D7 (PfCRT^3D7 [8]; SEM): 0.3 ± 0.02 % PfCRT3D7 control | activity at 5000 µM (PfCRT^3D7 [8]; [test solute]i = 5 mM (intracellular), PfCRT3D7 oocytes, normalised to oocyte type control, read-out: PfCRT-mediated [3H]CQ transport, trans-stimulation (% PfCRT3D7 control)): 97 ± 2% | activity at 45000 µM (PfCRT^3D7 [8]; SEM, read-out: Uptake of [3H]CQ (% PfCRTDd2 control), trans-stimulation, PfCRT3D7): 3.3 ± 0.06% | activity at 45000 µM (PfCRT^3D7 [8]; read-out: PfCRT-mediated [3H]CQ transport, trans-stimulation (% PfCRT3D7 control)): 96 ± 1.9% | activity at 45000 µM (PfCRT^3D7 [8]; read-out: Uptake of [3H]CQ (% PfCRT3D7 control), trans-stimulation): 98 ± 2.4% | activity at 5000 µM (PfCRT^3D7 [8]; total [3H]CQ transport, [test solute]i = 5 mM (intracellular), mean ± SEM, SEM, read-out: Uptake of [3H]CQ (% PfCRTDd2 control), trans-stimulation, PfCRT3D7): 3.3 ± 0.05% | inhibition at 500 µM (PfCRT^3D7 [9]; [19]): 100 ± 4.8% | inhibition at 1000 µM (PfCRT^3D7 [9]; [19]): 101 ± 3.7% | inhibition at 2000 µM (PfCRT^3D7 [9]; [19]): 100 ± 4.7% | inhibition at 500 µM (PfCRT^3D7 [9]; [20]): 3.4 ± 0.07% | inhibition at 1000 µM (PfCRT^3D7 [9]; [20]): 3.3 ± 0.03% | inhibition at 2000 µM (PfCRT^3D7 [9]; [20]): 3.1 ± 0.07% | Tested as potential co-substrate but not required for influx of VF-6 via PfCRT into the oocyte (PfCRT [10]): X
